Laboratory results as given in patent US10588317B2, “Isoxazoline-substituted benzamides and analogues as insecticides” (priority 2015, dated 2020).

Columns and labels:
Assay type in all cases: in vivo
Diabrotica balteata = Diabrotica balteata (corn root worm), sprayed maize sprouts; details: 96 h, application rate 200 ppm, L2 larvae, 4 days after infestation, read-out: effect in at least one of the two categories (mortality or growth inhibition)
How it was run: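 Maize sprouts on agar sprayed with aqueous dilutions of DMSO stocks, dried, then infested with L2 larvae (6–10 per well). Mortality and growth inhibition scored against untreated controls 4 days after infestation, at 200 ppm application rate.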

Euschistus heros = Euschistus heros (neotropical brown stink bug), sprayed soybean leaves; details: 120 h, application rate 200 ppm, N2 nymphs, 5 days after infestation, read-out: effect in at least one of the two categories (mortality or growth inhibition)
How it was run: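 Soybean leaves on agar sprayed with aqueous dilutions of DMSO stocks, dried, then infested with N2 nymphs. Mortality and growth inhibition scored against untreated samples 5 days after infestation; application rate 200 ppm.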

Myzus persicae = Myzus persicae (green peach aphid): feeding/contact activity; details: 144 h, application rate 200 ppm, aphid population of mixed ages, 6 days after infestation, read-out: mortality
Procedure: (§1) Sunflower leaf discs were placed onto agar in a 24-well microtiter plate and sprayed with aqueous test solutions prepared from 10'000 ppm DMSO stock solutions. After drying, the leaf discs were infested with an aphid population of mixed ages. The samples were assessed for mortality 6 days after infestation.

Plutella xylostella = Plutella xylostella (diamond back moth), artificial diet; details: 120 h, application rate 200 ppm, L2 larvae, 5 days after infestation, read-out: effect in at least one of the two categories (mortality or growth inhibition)
How it was run: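 Artificial diet in 24-well plates treated with aqueous test solutions made from 10'000 ppm DMSO stocks, dried, then infested with L2 larvae (10 to 15 per well). Mortality and growth inhibition scored against untreated samples 5 days after infestation; activity cut-off at least 80% in either category at 200 ppm.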

Spodoptera littoralis = Spodoptera littoralis (Egyptian cotton leaf worm), sprayed cotton leaf discs; details: foliar, 72 h, application rate 200 ppm, L1 larvae, 3 days after infestation, read-out: control (mortality, anti-feeding effect, growth inhibition)
How it was run: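 Cotton leaf discs on agar sprayed with aqueous test solutions made from 10'000 ppm DMSO stock; after drying, infested with five L1 larvae. Mortality, anti-feeding and growth inhibition scored versus untreated samples 3 days after infestation; control counted when any category exceeds untreated.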

Tetranychus urticae = Tetranychus urticae (two-spotted spider mite): feeding/contact activity; details: 192 h, application rate 200 ppm, mixed population (mobile stages), 8 days after infestation, read-out: mortality
Procedure: Bean leaf discs on agar in 24-well microtiter plates were sprayed with aqueous test solutions prepared from 10'000 ppm DMSO stock solutions. After drying the leaf discs were infested with a mite population of mixed ages. The samples were assessed for mortality on mixed population (mobile stages) 8 days after infestation.

Thrips tabaci = Thrips tabaci (onion thrips): feeding/contact activity; details: 144 h, application rate 200 ppm, Thrips population of mixed ages, 6 days after infestation, read-out: mortality
Procedure: as §1, with “on” for “onto”, “in” for “in a”, “plates” for “plate”, “drying” for “drying,”, “a Thrips” for “an aphid”

COC(=O)N(C)S(=O)(=O)N1CC(NC(=O)c2ccc(C3=NO[C@@](c4cc(Cl)c(F)c(Cl)c4)(C(F)(F)F)C3)cc2C)CO1 (stereo partly drawn) [Compound A77, methyl N-[4-[[4-[(5S)-5-(3,5-dichloro-4-fluoro-phenyl)-5-(trifluoromethyl)-4H-isoxazol-3-yl]-2-methyl-benzoyl]amino]isoxazolidin-2-yl]sulfonyl-N-methyl-carbamate]
≥ 80%: percent effect (mortality or growth inhibition) at 200 ppm (Diabrotica balteata) | percent effect (mortality or growth inhibition) at 200 ppm (Euschistus heros) | mortality at 200 ppm (Myzus persicae) | percent effect (mortality or growth inhibition) at 200 ppm (Plutella xylostella) | mortality at 200 ppm (Spodoptera littoralis) | mortality at 200 ppm (Tetranychus urticae) | mortality at 200 ppm (Thrips tabaci)

Cc1cc(C2=NO[C@@](c3cc(Cl)c(F)c(Cl)c3)(C(F)(F)F)C2)ccc1C(=O)NC1CON(S(=O)(=O)N(C)C(=O)N(C)C)C1 (some centres unmarked) [Compound A74]
≥ 80%: percent effect (mortality or growth inhibition) at 200 ppm (Diabrotica balteata) | percent effect (mortality or growth inhibition) at 200 ppm (Euschistus heros) | mortality at 200 ppm (Myzus persicae) | percent effect (mortality or growth inhibition) at 200 ppm (Plutella xylostella) | mortality at 200 ppm (Spodoptera littoralis) | mortality at 200 ppm (Tetranychus urticae) | mortality at 200 ppm (Thrips tabaci)

Cc1cc(C2=NO[C@@](c3cc(Cl)cc(C(F)(F)F)c3)(C(F)(F)F)C2)ccc1C(=O)N[C@@H]1CON(S(=O)(=O)C(F)F)C1 [Compound A233]
≥ 80%: percent effect (mortality or growth inhibition) at 200 ppm (Diabrotica balteata) | percent effect (mortality or growth inhibition) at 200 ppm (Euschistus heros) | mortality at 200 ppm (Myzus persicae) | percent effect (mortality or growth inhibition) at 200 ppm (Plutella xylostella) | mortality at 200 ppm (Spodoptera littoralis) | mortality at 200 ppm (Tetranychus urticae) | mortality at 200 ppm (Thrips tabaci)

Cc1cc(C2=NO[C@](c3cc(Cl)cc(C(F)F)c3)(C(F)(F)F)C2)ccc1C(=O)N[C@H]1CON(S(=O)(=O)N(C)C)C1 [Compound A186]
≥ 80%: percent effect (mortality or growth inhibition) at 200 ppm (Diabrotica balteata) | percent effect (mortality or growth inhibition) at 200 ppm (Euschistus heros) | mortality at 200 ppm (Myzus persicae) | percent effect (mortality or growth inhibition) at 200 ppm (Plutella xylostella) | mortality at 200 ppm (Spodoptera littoralis) | mortality at 200 ppm (Tetranychus urticae) | mortality at 200 ppm (Thrips tabaci)

Cc1cc(C2=NO[C@@](c3cc(Cl)c(F)c(Cl)c3)(C(F)(F)F)C2)ccc1C(=O)N[C@@H]1CON(S(=O)(=O)CC(=O)O)C1 [Compound A200]
≥ 80%: percent effect (mortality or growth inhibition) at 200 ppm (Diabrotica balteata) | percent effect (mortality or growth inhibition) at 200 ppm (Euschistus heros) | mortality at 200 ppm (Myzus persicae) | percent effect (mortality or growth inhibition) at 200 ppm (Plutella xylostella) | mortality at 200 ppm (Spodoptera littoralis) | mortality at 200 ppm (Tetranychus urticae) | mortality at 200 ppm (Thrips tabaci)

Cc1cc(C2=NO[C@@](c3cc(Cl)cc(C(F)(F)F)c3)(C(F)(F)F)C2)ccc1C(=O)N[C@@H]1CON(S(=O)(=O)CC(F)(F)F)C1 [Compound A214]
≥ 80%: percent effect (mortality or growth inhibition) at 200 ppm (Diabrotica balteata) | percent effect (mortality or growth inhibition) at 200 ppm (Euschistus heros) | mortality at 200 ppm (Myzus persicae) | percent effect (mortality or growth inhibition) at 200 ppm (Plutella xylostella) | mortality at 200 ppm (Spodoptera littoralis) | mortality at 200 ppm (Tetranychus urticae) | mortality at 200 ppm (Thrips tabaci)

C#CCN(CC)S(=O)(=O)N1C[C@@H](NC(=O)c2ccc(C3=NO[C@@](c4cc(Cl)cc(Cl)c4)(C(F)(F)F)C3)cc2Cl)CO1 [Compound A161, 2-chloro-4-[(5S)-5-(3,5-dichlorophenyl)-5-(trifluoromethyl)-4H-isoxazol-3-yl]-N-[(4R)-2-[ethyl(prop-2-ynyl)sulfamoyl]isoxazolidin-4-yl]benzamide]
≥ 80%: percent effect (mortality or growth inhibition) at 200 ppm (Diabrotica balteata) | percent effect (mortality or growth inhibition) at 200 ppm (Euschistus heros) | mortality at 200 ppm (Myzus persicae) | percent effect (mortality or growth inhibition) at 200 ppm (Plutella xylostella) | mortality at 200 ppm (Spodoptera littoralis) | mortality at 200 ppm (Tetranychus urticae) | mortality at 200 ppm (Thrips tabaci)

Cc1cc(C2=NO[C@](c3cc(Cl)cc(Cl)c3)(C(F)(F)F)C2)ccc1C(=O)N[C@@H]1CON(S(=O)(=O)C(F)F)C1 [Compound A232, 4-[(5R)-5-(3,5-dichlorophenyl)-5-(trifluoromethyl)-4H-1,2-oxazol-3-yl]-N-[(4S)-2-(difluoromethylsulfonyl)-1,2-oxazolidin-4-yl]-2-methylbenzamide]
≥ 80%: percent effect (mortality or growth inhibition) at 200 ppm (Diabrotica balteata) | percent effect (mortality or growth inhibition) at 200 ppm (Euschistus heros) | mortality at 200 ppm (Myzus persicae) | percent effect (mortality or growth inhibition) at 200 ppm (Plutella xylostella) | mortality at 200 ppm (Spodoptera littoralis) | mortality at 200 ppm (Tetranychus urticae) | mortality at 200 ppm (Thrips tabaci)

Cc1cc(C(F)(F)F)cc([C@@]2(C(F)(F)F)CC(c3ccc(C(=O)N[C@@H]4CON(S(C)(=O)=O)C4)c(C)c3)=NO2)c1 [Compound A212]
≥ 80%: percent effect (mortality or growth inhibition) at 200 ppm (Diabrotica balteata) | percent effect (mortality or growth inhibition) at 200 ppm (Euschistus heros) | mortality at 200 ppm (Myzus persicae) | percent effect (mortality or growth inhibition) at 200 ppm (Plutella xylostella) | mortality at 200 ppm (Spodoptera littoralis) | mortality at 200 ppm (Tetranychus urticae) | mortality at 200 ppm (Thrips tabaci)

Cc1cc(C2=NO[C@@](c3cc(Cl)c(F)c(Cl)c3)(C(F)(F)F)C2)ccc1C(=O)NC1CON(S(=O)(=O)C(C)C)C1 (some centres unmarked) [Compound A17]
≥ 80%: percent effect (mortality or growth inhibition) at 200 ppm (Diabrotica balteata) | percent effect (mortality or growth inhibition) at 200 ppm (Euschistus heros) | mortality at 200 ppm (Myzus persicae) | percent effect (mortality or growth inhibition) at 200 ppm (Plutella xylostella) | mortality at 200 ppm (Spodoptera littoralis) | mortality at 200 ppm (Tetranychus urticae) | mortality at 200 ppm (Thrips tabaci)

Cc1cc(C2=NO[C@@](c3cc(Cl)cc(Cl)c3)(C(F)(F)F)C2)ccc1C(=O)N[C@@H]1CON(S(=O)(=O)CF)C1 [Compound A210]
≥ 80%: percent effect (mortality or growth inhibition) at 200 ppm (Diabrotica balteata) | percent effect (mortality or growth inhibition) at 200 ppm (Euschistus heros) | mortality at 200 ppm (Myzus persicae) | percent effect (mortality or growth inhibition) at 200 ppm (Plutella xylostella) | mortality at 200 ppm (Spodoptera littoralis) | mortality at 200 ppm (Tetranychus urticae) | mortality at 200 ppm (Thrips tabaci)

Cc1cc(C2=NO[C@@](c3cc(Cl)c(Cl)c(Cl)c3)(C(F)(F)F)C2)ccc1C(=O)NC1CON(S(=O)(=O)N(C)CC2CO2)C1 (stereo partly drawn) [Compound A83, 2-methyl-N-[2-[methyl(oxiran-2-ylmethyl)sulfamoyl]isoxazolidin-4-yl]-4-[(5S)-5-(3,4,5-trichlorophenyl)-5-(trifluoromethyl)-4H-isoxazol-3-yl]benzamide]
≥ 80%: percent effect (mortality or growth inhibition) at 200 ppm (Diabrotica balteata) | percent effect (mortality or growth inhibition) at 200 ppm (Euschistus heros) | mortality at 200 ppm (Myzus persicae) | percent effect (mortality or growth inhibition) at 200 ppm (Plutella xylostella) | mortality at 200 ppm (Spodoptera littoralis) | mortality at 200 ppm (Tetranychus urticae) | mortality at 200 ppm (Thrips tabaci)

Cc1cc(C2=NO[C@@](c3cc(Cl)cc(Cl)c3)(C(F)(F)F)C2)ccc1C(=O)N[C@@H]1CON(S(=O)(=O)CC(=O)O)C1 [Compound A174, 2-[[(4S)-4-[[4-[(5S)-5-(3,5-dichlorophenyl)-5-(trifluoromethyl)-4H-1,2-oxazol-3-yl]-2-methylbenzoyl]amino]-1,2-oxazolidin-2-yl]sulfonyl]acetic acid]
≥ 80%: percent effect (mortality or growth inhibition) at 200 ppm (Diabrotica balteata) | percent effect (mortality or growth inhibition) at 200 ppm (Euschistus heros) | mortality at 200 ppm (Myzus persicae) | percent effect (mortality or growth inhibition) at 200 ppm (Plutella xylostella) | mortality at 200 ppm (Spodoptera littoralis) | mortality at 200 ppm (Tetranychus urticae) | mortality at 200 ppm (Thrips tabaci)

Cc1cc(C2=NO[C@](c3cc(Cl)c(F)c(Cl)c3)(C(F)(F)F)C2)ccc1C(=O)N[C@H]1CON(S(=O)(=O)CF)C1 [Compound A211]
≥ 80%: percent effect (mortality or growth inhibition) at 200 ppm (Diabrotica balteata) | percent effect (mortality or growth inhibition) at 200 ppm (Euschistus heros) | mortality at 200 ppm (Myzus persicae) | percent effect (mortality or growth inhibition) at 200 ppm (Plutella xylostella) | mortality at 200 ppm (Spodoptera littoralis) | mortality at 200 ppm (Tetranychus urticae) | mortality at 200 ppm (Thrips tabaci)
